Measured values taken from patent publication US6417247B1, “Polymer/ceramic composites” (priority 1997, dated 2002).

Experiment: Release of model compounds from chitosan-calcium phosphate composites in PBS
Conditions: chitosan-TCP composite, PBS pH 7.4, 37° C., FIG. 12

time over which the model compound was released from the composite: ≤ 10 h
SMILES: O=c1[nH]cc(F)c(=O)[nH]1 [5-FU, 5-fluorouracil]
